# Measured values taken from the SangsterLogP compilation.
# Assay: method code SF, from DOI: 10.1002/jps.2600650919, PMID: 966149
# Conditions: pH 7.4
row,SMILES,logD
1,CC12CCC(=O)C=C1C1CC1C1C2CCC2(C)C1CCC21CCC(=O)O1 (stereo not given),3.08
2,CC12CCC(=O)C=C1C=CC1C2CCC2(C)C1CCC21CCC(=O)O1 (stereo not given),2.68
3,CC12CCC(=O)C=C1C1(CC1)CC1C2CCC2(C)C1CCC21CCC(=O)O1 (stereo not given),3.15
4,COC(=O)C1CC2=CC(=O)CCC2(C)C2CCC3(C)C(CCC34CCC(=O)O4)C12 (stereo not given),2.18
5,CCOC(=O)C1CC2=CC(=O)CCC2(C)C2CCC3(C)C(C4CCC(=O)O4)CCC3C12 (stereo not given),2.54
6,CC12CCC(=O)C=C1CCC1C3CCC4(CCC(=O)O4)C3(C)CC3OC312 (stereo not given),1.96
7,CC12CCC(=O)C=C1CCC1C3CCC4(CCC(=O)O4)C3(C)CC(O)C12F (stereo not given),2.4
8,CC12CCC(=O)C=C1CC(C#N)C1C2CCC2(C)C1CCC21CCC(=O)O1 (stereo not given),1.67
9,CC(=O)SC1CC2=CC(=O)CCC2(C)C2CCC3(C)C(CCC34CCC(=O)O4)C12 (stereo not given),2.78
10,CC(C)OC(=O)C1CC2=CC(=O)CCC2(C)C2CCC3(C)C(C4CCC(=O)O4)CCC3C12 (stereo not given),2.82
